Test results taken from patent US20150238447A1, “BETA-HYDROXY-BETA-METHYLBUTRYIC ACID-CONTAINING COMPOSITIONS AND USES THEREOF” (ABBOTT LABORATORIES, priority 2012, published 2015).

Test system: mice fed a high fat diet
Experiment: motor (exploratory) activity in activity monitoring chamber, Opto-Varimex 4
Format: in vivo
Conditions: high fat diet plus Ca-HMB (170 or 340 mg/kg of drinking water) compared to high fat diet alone; 30 minutes observation
Experimental: The mice arrived at the facility at 21 days post birth and were divided into 6 groups after a seven day quarantine. There were 5 animals each. […] were placed on the following diets:
Group 1: High Fat Diet alone;
Group 2: High Fat Diet plus 500 mg of leucine/kg of drinking water;
Group 3: High Fat Diet plus 1000 mg of leucine/kg of drinking water;
Group 4: High Fat Diet plus 170 mg of Ca-HMB/kg of drinking water;
Group 5: High Fat Diet plus 340 mg of Ca-HMB/kg of drinking water; and
One week before the initiation of the study, the animals were acclimatized in the activity monitoring chamber, daily for half an hour. On the day of experiment, each set of animals were placed in the activity monitoring chamber (chamber 1 to 5) for half an hour. Motor activity of the mice in each group was monitored using the Actometry Apparatus: “Opto-Varimex 4” Auto-track system, Model No: 0271-004M. The motor activity of each mouse was monitored once in a week between 8:30 AM and 12:00 PM for 30 minutes. Six sets of “half an hour observations” were made for each of the 30 animals. The software captured motor activity parameters while the animals were in the activity monitoring chamber.

CC(C)(O)CC(=O)O [HMB, beta-hydroxy-beta-methylbutyric acid]
exploratory activity: enhanced exploratory activity
